Experimental data published in patent publication US6630127B2, “Method for assessing cortical response to blue light” (The McLean Hospital Corporation, priority 2000, dated 2003).

Experiments:
[1] = system: visual cortex; details: photic stimulation paradigm, humans; cited from earlier work
[2] = system: human primary visual cortex (V1); test: fMRI BOLD study with alternating red and blue photic stimulation after oral d-amphetamine or placebo

Row | SMILES | effect on BOLD signal / photic activation in visual cortex [1] | Mean % BOLD signal change (all trials), V1, blue light stimulation ([2]; blue light 470 nm, 0.12 lux, 8 Hz, right and left V1 1x4 ROI, 2.5 mg d-amphetamine sulfate oral, N = 13) [%] | mean BOLD signal change higher in drug than in placebo condition, blue light ([2]; blue light, drug 2.04% versus placebo 1.60%, all trials) [%] | effect of time following drug administration on BOLD signal response to blue light ([2]; linear regression, 5 trials from about 18 min post-drug, Z=-2.471, P=0.013, decreasing BOLD signal over time) | effect of time following drug administration on BOLD signal response to red light ([2]; linear regression, 5 trials, Z=-0.470, P=0.638) | overall BOLD response to red and blue light ([2]; low dose (2.5 mg) d-amphetamine versus placebo) | Mean % BOLD signal change (all trials), V1, red light stimulation ([2]; red light 660 nm, 0.12 lux, 8 Hz, right and left V1 1x4 ROI, 2.5 mg d-amphetamine sulfate oral, N = 13) [%] | mean BOLD signal change higher in drug than in placebo condition, red light ([2]; red light, drug 1.24% versus placebo 0.95%, all trials) [%]
1 | CCO [ethanol] | inhibits photic activation | – | – | – | – | – | – | –
2 | C[C@H](N)Cc1ccccc1.C[C@H](N)Cc1ccccc1.O=S(=O)(O)O [d-amphetamine, d-amphetamine sulfate] | – | 2.04 | 28 | significant effect of time | no significant effect of drug over time | enhanced | 1.24 | 30
